Reference: paper PMC3466269, “A Comprehensive Strategy to Discover Inhibitors of the Translesion Synthesis DNA Polymerase κ” (PLoS ONE, 2012)
Like-named read-outs stand apart in the source and are kept apart here.

Legend:
[1] = system: double-stranded DNA ladder; assay: DNA intercalation assay (agarose gel shift of DNA ladder); format: binding; details: 0.75 or 3 nmol compound with 1.5 nmol DNA, 1% agarose gel
Description: Candesartan cilexetil or ethidium bromide was incubated with 1.5 nmol of double-stranded DNA ladder for 15 min at room temperature in the buffer containing 50 mM Tris-HCl, pH 8.0, 0.01% Tween-20, 1 mM DTT, and 40 mM NaCl. The reaction mixtures were run on 1% agarose gel and stained with ethidium bromide (0.5 µg/ml) for visualization.
Figure 7 The non-DNA-intercalating property of candesartan cilexetil. Candesartan cilexetil or ethidium bromide was incubated with double-stranded DNA ladder, and the reaction products were run on 1% agarose gel and stained with ethidium bromide. Lane 1: No compound. Lane 2: 0.75 nmol of candesartan cilexetil was incubated with 1.5 nmol DNA. Lane 3: 3 nmol of candesartan cilexetil was incubated with 1.5 nmol DNA. Lane 4: 0.75 nmol of ethidium bromide was incubated with 1.5 nmol DNA. Lane 5: 3 nmol of ethidium bromide was incubated with 1.5 nmol DNA.

[2] = molecular target: T1, Human pol κ (residues 19–526) (Homo sapiens, UniProt Q9UBT6); assay: qHTS fluorescence-based DNA strand displacement assay; format: biochemical
T1 construct: Human pol κ (residues 19–526) was purified as previously reported; made in house
T1 sequence (Q9UBT6 19-526): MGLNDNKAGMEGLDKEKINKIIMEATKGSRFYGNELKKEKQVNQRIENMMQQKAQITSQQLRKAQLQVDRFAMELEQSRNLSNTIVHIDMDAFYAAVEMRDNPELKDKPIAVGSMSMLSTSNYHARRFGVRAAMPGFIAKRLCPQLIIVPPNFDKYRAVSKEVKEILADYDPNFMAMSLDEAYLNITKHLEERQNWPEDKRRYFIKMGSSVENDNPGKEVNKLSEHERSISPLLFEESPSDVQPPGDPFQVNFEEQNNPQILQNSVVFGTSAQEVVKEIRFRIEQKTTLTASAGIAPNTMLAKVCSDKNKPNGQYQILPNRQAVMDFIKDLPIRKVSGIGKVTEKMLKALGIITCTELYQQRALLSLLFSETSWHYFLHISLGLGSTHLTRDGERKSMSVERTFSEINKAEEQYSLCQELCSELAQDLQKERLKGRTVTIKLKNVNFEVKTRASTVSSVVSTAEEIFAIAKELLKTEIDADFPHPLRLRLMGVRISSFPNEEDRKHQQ
Description: The substrate used in qHTS was made by the annealing of unlabeled oligodeoxynucleotide primer (5′-TCACCCTCGTACGACTC-3′) and TAMRA-labeled reporter strand (5′-TTTTTTTTTTGC-6-TAMRA-3′) to oligodeoxynucleotide template labeled with BHQ-2 (5′-BHQ-2-[…]-3′) as originally described by Dorjsuren et al.. The annealing mixture of unlabeled primer, TAMRA-labeled reporter, and BHQ-2-labeled template in buffer containing 50 mM Tris-HCl, pH 8.0, 100 mM NaCl, and 5 mM MgCl2 was heated at 95°C for 5 min and allowed to cool gradually to room temperature. The substrate was then stored at −20°C as 50 µM stock.
qHTS was performed in 50 mM Tris-HCI, pH 8.0, 40 mM NaCl, 1 mM MgCl2, 0.01% Tween-20, 2 mM DTT, and 100 µM dTTP. 3 µL of reagents (buffer as negative control and pol κ in the remaining plate at 10 nM final concentration) were dispensed by Flying Reagent Dispenser™ (FRD) (Beckman Coulter, Inc., Fullerton, CA) into a 1,536-well plate. Compounds were delivered as 23 nL in DMSO solution via pintool transfer; vehicle-only control consisted of 23 nL DMSO. The plate was incubated for 15 min at room temperature, and then 1 µL of substrate (50 nM final concentration) was added to initiate the reaction. The plate was immediately transferred into ViewLux reader for kinetic fluorescence data collection.
To lay the foundation for the methodologies to discover and characterize inhibitors of pol κ, we used a fluorescent reporter strand displacement assay (Figure 1 and [27]). The library of bioactive small molecules was tested as seven-point dilution series, with the final concentrations ranging from 2.9 nM to 57 µM.

Human pol κ [3] = molecular target: T2, Human pol κ (Homo sapiens, UniProt Q9UBT6); assay: Radioactive gel-based primer extension assay on non-damaged DNA, pol κ; format: biochemical
T2 construct: Human pol κ (residues 19–526) was purified as previously reported; made in house
T2 sequence (Q9UBT6 19-526): T1 sequence (Q9UBT6 19-526)
Description: (§1) The reactions with pol κ, pol η, and pol ι were carried out in the buffers containing 25 mM Tris-HCl, pH 7.5, 8 mM MgCl2, 10% glycerol, 100 µg/mL bovine serum albumin, and 5 mM DTT. Buffers for pol δ reactions contained 40 mM Hepes-KOH, pH 6.8, 10% glycerol, 200 µg/mL bovine serum albumin, 1 mM DTT, and 8 mM MgCl2. Final concentration of pol κ, pol η, pol ι, or pol δ in the reaction was 0.25 nM, 1 nM, 2.5 nM, or 4 nM, respectively. In this assay, a polymerase was preincubated with the compound for 15 min at room temperature. Primer extensions were then initiated by the addition of DNA substrate at final concentration of 5 nM and carried out for 30 min at room temperature in the presence of 100 µM dCTP and dGTP. The reactions were terminated by the addition of an equal volume of a dye solution containing 95% (v/v) formamide, 10 mM EDTA, 0.03% (w/v) xylene cyanol, and 0.03% (w/v) bromphenol blue. Reaction products were separated through a 15% acrylamide gel containing 8 M urea and visualized with a PhosphorImager screen. The ratio of extended primer to the total amount of primer was measured using ImageQuant 5.2 software to calculate the percentage of primer extended. IC50 values were determined by fitting the data to variable slope four-parameter equations using GraphPad Prism 5.

Human pol κ [4] = molecular target: T2, Human pol κ; assay: Radioactive gel-based primer extension (TLS) past acrolein-derived ring-opened reduced form of γ-HOPdG, pol κ; format: biochemical
Description: as §1
The primary role of pol κ is to bypass DNA lesions. Therefore, it was critical to establish the assays to investigate the capability of these compounds to inhibit lesion bypass activity of pol κ. Radioactive gel-based primer extension reactions were carried out using a DNA substrate containing a site-specific acrolein-derived ring-opened reduced form of γ-HOPdG, a lesion that pol κ can efficiently bypass in vitro [13].

XP30RO cells (XP-V) = assay: Cell survival assay, crystal violet, with or without UV; details: crystal violet; inhibitor 6 h then UV 1.5, 4.5 or 7.5 J/m^2; candesartan cilexetil 24 µM
Description: Cell survival assays were carried out using crystal violet assays and CellTiter-Glo Luminescent Cell Viability Assays. In crystal violet assays, XP30RO cells were plated into clear 96-well plates at a density of 8000 cells/mL and incubated overnight at 37°C, 5% CO2. The cells were treated with (1) inhibitor alone for 6 h or (2) UV alone or (3) inhibitor alone for 6 h followed by UV irradiation. After 2 days, cells were fixed with 4% paraformaldehyde and stained with 0.5% crystal violet dye. The dye was dissolved in 10% acetic acid and absorbance measurement was taken at OD595 nm with Infinite® M200 plate reader (Tecan, Durham, NC). For the CellTiter-Glo Luminescent Cell Viability Assays, the same procedures as crystal violet assays were used except that white/clear bottom 96-well plates were used and cell viability was measured following manufacturer's recommendations.
XP30RO cells were treated with 24 µM of candesartan cilexetil alone, UV alone at 1.5 J/m^2, 4.5 J/m^2, or 7.5 J/m^2, or in combination. Percent survival was calculated by normalizing the data using the cell survival of untreated cells. The data were obtained from three independent experiments.

pol κ = details: cited from earlier work
mouse pol ι = system: mouse pol ι; parameters: method as in PMID 19223184; details: read-out: IC50 against pol ι; cited from earlier work
pol α = system: pol α; parameters: method as in PMID 20599777; details: cited from earlier work

Compound: CC[n+]1c(-c2ccccc2)c2cc(N)ccc2c2ccc(N)cc21 [ethidium bromide]
- DNA migration pattern (intercalation) [1]: bands shifted upwards

Compound: CC(C)c1ccc2c(c1)c(SC(C)(C)C)c(CC(C)(C)C(=O)O)n2Cc1ccc(Cl)cc1 [MK-886]
- IC50 ([2]; fluorescence strand displacement, 10 nM pol κ, 50 nM substrate, 100 µM dTTP, read-out: qHTS: IC50): 30 µM
- IC50 (Human pol κ [3]; primer extension, non-damaged DNA, 0.25 nM pol κ, average ± standard error, three experiments, read-out: gel: non-damaged: IC50): 13 ± 1.7 µM
- IC50 (Human pol κ [4]; primer extension, adducted DNA, 0.25 nM pol κ, average ± standard error, three experiments, read-out: gel: ring-opened reduced form of γ-HOPdG: IC50): 14 ± 0.9 µM
- Effect on UV-induced cytotoxicity (XP30RO cells (XP-V)): failed to enhance UV toxicity

Compound: CC1=C(CC/C(C)=C/CCC2=CC[C@H](C3=CC(=O)O[C@H]3O)O[C@H]2O)C(C)(C)CCC1 [manoalide]
- IC50 [2]: 9.5 µM
- IC50 (Human pol κ [3]): 3.4 ± 0.9 µM
- IC50 (Human pol κ [4]): 5.6 ± 0.9 µM
- Effect on UV-induced cytotoxicity (XP30RO cells (XP-V)): failed to enhance UV toxicity

Compound: C/C=C/c1occ(C(=O)c2c(OC)cc(OC)cc2C(=O)OC)c(=O)c1OC [3-O-methylfunicone]
- IC50 (pol κ): 12.5 µM

Compound: CC1(C)[C@@H](O)CC[C@]2(C)[C@H]3C(=O)C=C4[C@@H]5C[C@@](C)(C(=O)O)CC[C@]5(C)CC[C@@]4(C)[C@]3(C)CC[C@@H]12 [Glycyrrhetinic acid]
- IC50 (pol κ): 15.8 µM

Compound: C18:1-Acyl juglone
- IC50 (pol κ): 8.1 µM

Compound: COC1=C(C(=O)CC(C)O)C(=O)C(C)(/C=C/C=C/C(C)O)O1 (stereo not drawn) [Penicilliol B]
- IC50 (mouse pol ι): 32.5 µM

Compound: C/C=C/C(=O)C1=C(OC)OC(C)(/C=C/C=C/C(C)O)C1=O (stereo not drawn) [Penicilliol A]
- IC50 (mouse pol ι): 19.8 µM

Compound: CC1=CC[C@H]2C(C)(C)CCC[C@]2(C)[C@H]1CCCCCCCCCCCCCCCCC(=O)O (relative stereo) [(1S*,4aS*,8aS*)-17-(1,4,4a,5,6,7,8,8a-octahydro-2,5,5,8a-tetramethylnaphthalen-1-yl)heptadecanoic acid]
- IC50 (pol κ): 7.2 µM

Compound: CCCCCCCCCCCC(=O)Oc1cccc2c1C(=O)C=CC2=O [C12:0-Acyl juglone]
- IC50 (pol κ): 6.8 µM

Compound: O=C(OC[C@H]1O[C@@H](OC(=O)c2cc(O)c(O)c(O)c2)[C@H](OC(=O)c2cc(O)c(O)c(O)c2)[C@@H](OC(=O)c2cc(O)c(O)c(O)c2)[C@@H]1OC(=O)c1cc(O)c(O)c(O)c1)c1cc(O)c(O)c(O)c1 [penta-1,2,3,4,6-O-galloyl-beta-D-glucose]
- IC50 (pol κ): 0.03 µM
- IC50 (pol α): 0.013 µM
